From article PMC11945486, “TAS1R2/TAS1R3 Single-Nucleotide Polymorphisms Affect Sweet Taste Receptor Activation by Sweeteners: The SWEET Project” (Nutrients, 2025)
Like-named read-outs stand apart in the source and are kept apart here. One block for each molecule: values may come before it. No end group written: not given here.

Molecular target: T1, human TAS1R2-WT/TAS1R3-R247H (Homo sapiens, UniProt Q7RTX0+Q8TE23, R247H)
T1 construct: expressed in transfected cells; host or cells: HEK293T stably expressing Gα16gust44
T1 sequence (Q8TE23 20-839): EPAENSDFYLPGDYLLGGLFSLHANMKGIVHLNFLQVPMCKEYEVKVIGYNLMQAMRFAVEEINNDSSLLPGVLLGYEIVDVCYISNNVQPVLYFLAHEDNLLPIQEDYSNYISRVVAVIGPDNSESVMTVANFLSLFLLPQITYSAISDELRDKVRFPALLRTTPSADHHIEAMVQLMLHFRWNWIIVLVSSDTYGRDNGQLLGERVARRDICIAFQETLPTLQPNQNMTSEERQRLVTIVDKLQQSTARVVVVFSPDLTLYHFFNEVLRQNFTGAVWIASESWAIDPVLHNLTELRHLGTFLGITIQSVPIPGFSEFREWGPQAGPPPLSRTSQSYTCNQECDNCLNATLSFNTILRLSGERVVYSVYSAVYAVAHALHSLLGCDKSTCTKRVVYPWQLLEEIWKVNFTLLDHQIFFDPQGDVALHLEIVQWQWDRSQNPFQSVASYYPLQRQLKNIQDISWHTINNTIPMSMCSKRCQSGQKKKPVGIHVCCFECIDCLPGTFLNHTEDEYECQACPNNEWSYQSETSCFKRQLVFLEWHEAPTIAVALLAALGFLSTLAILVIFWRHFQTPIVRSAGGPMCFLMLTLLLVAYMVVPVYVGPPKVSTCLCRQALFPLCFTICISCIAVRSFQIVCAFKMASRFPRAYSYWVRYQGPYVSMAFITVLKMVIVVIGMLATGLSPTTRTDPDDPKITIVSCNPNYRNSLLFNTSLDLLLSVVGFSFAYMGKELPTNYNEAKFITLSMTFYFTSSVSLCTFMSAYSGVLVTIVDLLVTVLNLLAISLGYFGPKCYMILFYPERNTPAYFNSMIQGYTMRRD
T1 sequence (Q7RTX0 21-852 R247H): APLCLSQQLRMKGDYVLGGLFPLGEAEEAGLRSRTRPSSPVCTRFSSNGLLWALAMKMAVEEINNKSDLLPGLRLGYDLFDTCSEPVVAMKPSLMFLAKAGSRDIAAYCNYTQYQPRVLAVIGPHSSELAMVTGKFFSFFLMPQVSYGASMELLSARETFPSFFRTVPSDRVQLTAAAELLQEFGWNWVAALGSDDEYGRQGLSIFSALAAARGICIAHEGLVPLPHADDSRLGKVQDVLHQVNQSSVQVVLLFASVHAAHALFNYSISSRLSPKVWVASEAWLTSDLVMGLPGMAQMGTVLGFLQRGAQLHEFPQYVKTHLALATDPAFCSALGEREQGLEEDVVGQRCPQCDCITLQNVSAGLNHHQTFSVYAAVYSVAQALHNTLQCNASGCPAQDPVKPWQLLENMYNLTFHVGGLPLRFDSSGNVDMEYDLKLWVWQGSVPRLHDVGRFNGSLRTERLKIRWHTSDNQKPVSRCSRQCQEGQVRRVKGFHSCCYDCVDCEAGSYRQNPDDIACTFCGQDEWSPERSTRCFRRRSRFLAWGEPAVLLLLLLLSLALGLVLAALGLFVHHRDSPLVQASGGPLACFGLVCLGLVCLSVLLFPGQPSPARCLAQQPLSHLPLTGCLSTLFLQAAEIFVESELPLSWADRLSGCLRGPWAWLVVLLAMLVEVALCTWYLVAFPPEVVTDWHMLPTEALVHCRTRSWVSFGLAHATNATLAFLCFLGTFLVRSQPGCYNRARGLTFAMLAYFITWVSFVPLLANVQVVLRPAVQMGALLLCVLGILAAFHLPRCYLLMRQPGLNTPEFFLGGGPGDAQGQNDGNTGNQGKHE
Experiment: Calcium mobilisation assay, TAS1R2-WT with TAS1R3 variant R247H
Assay type: cell-based
Conditions: for Max ΔF/F0: maximal signal amplitude
Source text: The coding sequences for TAS1R2 and TAS1R3 were commercially synthesised, and the human codon was optimised for expression in human cells. The coding sequences of human TAS1R2 and TAS1R3 were subcloned and inserted into the mammalian expression vectors pcDNA6/myc-HisA and pcDNA4/myc-HisA (Invitrogen; Thermo Fisher Scientific; Illkirch, France) between the EcoRI and NotI restriction sites, generating the plasmids pcDNA6-TAS1R2 and pcDNA4-TAS1R3, respectively. To increase protein expression in mammalian cells, an upstream start codon was used, which was a sequence called MAX, corresponding to the QBI SP163 element also described in pcDNA4-HisMax (Invitrogen; Thermo Fisher Scientific; Illkirch, France). To measure the expression level of the receptor by immunohistochemistry, we used the FLAG sequence ([…]) in the C-terminal position, which encodes the FLAG tag epitope. SNP variants of TAS1R2 and TAS1R3 were constructed based on […], respectively, using site-directed mutagenesis (Genewiz; Leipzig, Germany).
The HEK293T cells were kindly provided by Jay P. Slack (Givaudan Flavors Corporation; Cincinnati, OH, USA). HEK293T cells stably transfected with Gα16gust44 [43, 67] were seeded in poly-D-lysine-coated clear-bottom black 96-well plates (0.35 × 10^5 cells/well) in high-glucose DMEM supplemented with 2 mM GlutaMAX, 10% dialysed foetal bovine serum with penicillin/streptomycin and G418 (400 μg/mL) at 37 °C and 6.3% CO2 in a humidified atmosphere as previously reported. […] As a negative control, HEK293T cells were mock-transfected with the empty expression vector. After a further 24 h of incubation, the HEK293T cells were washed with C1 buffer (130 mM NaCl, 5 mM KCl, 10 mM HEPES pH 7.4 and 2 mM CaCl2). The 96-well plates containing the cells were then stimulated with sweet-tasting compounds. […] Different concentration ranges were tested depending on the sweet compound injected. The Ca^2+ changes were expressed as fractional changes in fluorescent light intensity: ΔF/F = (F − F0)/F0, where F was the fluorescent light intensity at each point, and F0 was the value of emitted fluorescent light prior to stimulus application. To calculate dose–response relationships, the changes in fluorescence upon stimulus application were averaged, mock-subtracted and baseline-corrected. The dose–response data obtained were adjusted using a 4-parameter logistic equation. The half-maximal effective concentrations (EC50 values) and maximal signal amplitudes were calculated using SigmaPlot software (version 15.0) (Systat Software; San Jose, CA, USA).
For in vitro calcium mobilisation assay performed on hTAS1R2-SNPs, hTAS1R3-SNPs and mTAS1R3-I60T, 6 to 7 concentrations were tested for each sweet compound, plus buffer alone. All concentration–receptor combinations were measured in duplicate, and each experiment was repeated at least 4 times (8 wells/concentration). Results were expressed for each concentration as ΔF/F mean ± SEM and represented as dose–response curves.

Molecule: CC1=CC(=O)NS(=O)(=O)O1 [Acesulfame K, acesulfame K]
R1 = Variant EC50/WT EC50: 1.0
Max ΔF/F0: 0.33 ± 0.01
EC50 (read-out: EC50): 639 ± 17 µM

Molecule: O=S(=O)(O)NC1CCCCC1 [Cyclamate, cyclamate]
EC50 (read-out: EC50): 1520 ± 46 µM

Molecule: C[C@H](CC[C@@H](O[C@@H]1O[C@H](CO[C@@H]2O[C@H](CO)[C@@H](O)[C@H](O)[C@H]2O)[C@@H](O)[C@H](O)[C@H]1O[C@@H]1O[C@H](CO)[C@@H](O)[C@H](O)[C@H]1O)C(C)(C)O)[C@H]1CC[C@@]2(C)[C@@H]3CC=C4[C@@H](CC[C@H](O[C@@H]5O[C@H](CO[C@@H]6O[C@H](CO)[C@@H](O)[C@H](O)[C@H]6O)[C@@H](O)[C@H](O)[C@H]5O)C4(C)C)[C@]3(C)[C@H](O)C[C@]12C [Mogroside V, mogroside V]
R1 = Variant EC50/WT EC50: 0.9
Max ΔF/F0: 1.12 ± 0.02
EC50 (read-out: EC50): 28.7 ± 1.6 µM

Molecule: COc1ccc(CCC(=O)c2c(O)cc(O[C@@H]3O[C@H](CO)[C@@H](O)[C@H](O)[C@H]3O[C@@H]3O[C@@H](C)[C@H](O)[C@@H](O)[C@H]3O)cc2O)cc1O [NHDC, neohesperidin dihydrochalcone]
R1 = Variant EC50/WT EC50: 1.3
Max ΔF/F0: 1.14 ± 0.05
EC50 (read-out: EC50): 65 ± 8.9 µM

Molecule: COC(=O)[C@H](Cc1ccccc1)NC(=O)[C@H](CC(=O)O)NCCC(C)(C)C [Neotame]
R1 = Variant EC50/WT EC50: 0.9
Max ΔF/F0: 0.71 ± 0.02
EC50 (read-out: EC50): 1.12 ± 0.07 µM

The remaining lines, values ahead:

R1 = Variant EC50/WT EC50: 0.6
Max ΔF/F0: 1.26 ± 0.15
EC50 (read-out: EC50): 8.5 ± 3.1 µM
Molecule: C=C(C)[C@@H]1CC=C(/C=N/O)CC1 [Perillartine, perillartine]

R1 = Variant EC50/WT EC50: 0.7
Max ΔF/F0: 1.15 ± 0.04
EC50 (read-out: EC50): 29.7 ± 2.6 µM
Molecule: C=C1C[C@@]23CC[C@H]4[C@@](C)(CCC[C@@]4(C)C(=O)O[C@@H]4O[C@H](CO)[C@@H](O)[C@H](O[C@@H]5O[C@H](CO)[C@@H](O)[C@H](O)[C@H]5O)[C@H]4O[C@@H]4O[C@H](CO)[C@@H](O)[C@H](O)[C@H]4O)[C@@H]2CC[C@]1(O[C@@H]1O[C@H](CO)[C@@H](O)[C@H](O[C@@H]2O[C@H](CO)[C@@H](O)[C@H](O)[C@H]2O)[C@H]1O[C@@H]1O[C@H](CO)[C@@H](O)[C@H](O)[C@H]1O)C3 [Rebaudioside M, rebaudioside M]

R1 = Variant EC50/WT EC50: 1.1
Max ΔF/F0: 0.69 ± 0.01
EC50 (read-out: EC50): 122 ± 2 µM
Molecule: OC[C@H]1O[C@H](O[C@]2(CCl)O[C@H](CCl)[C@@H](O)[C@@H]2O)[C@H](O)[C@@H](O)[C@H]1Cl [Sucralose]

R1 = Variant EC50/WT EC50: 0.6
EC50 (brazzein): 70.8 ± 8.1 µg/mL
Max ΔF/F0: 0.95 ± 0.03
Molecule: brazzein (QDKCKKVYENYPVSKCQLANQCNYDCKLDKHARSGECFYDEKRNLQCICDYCEY; ends and bridges not checked; cysteine pairing not given here; UniProt P56552 1-54, looked up) [sweet-tasting protein obtained by recombinant production using the yeast Pichia pastoris]

R1 = Variant EC50/WT EC50: 0.8
Max ΔF/F0: 0.73 ± 0.08
Molecule: thaumatin

EC50 (read-out: EC50): 8.2 ± 2.3 µM
B1: thaumatin (protein)
chain: ATFEIVNRCSYTVWAAASKGDAALDAGGRQLNSGESWTINVEPGTKGGKIWARTDCYFDDSGSGICKTGDCGGLLRCKRFGRPPTTLAEFSLNQYGKDYIDISNIKGFNVPMDFSPTTRGCRGVRCAADIVGQCPAKLKAPGGGCNDACTVFQTSEYCCTTGKCGPTEYSRFFKRLCPDAFSYVLDKPTTVTCPGSSNYRVTFCPTA
modifications: Eight disulfides
notes: sweet-tasting plant protein, E957
